Test results as given in patent US20250311722A1, “IMPROVED BIOCIDE” (Purgos ApS, priority 2022, published 2025).
“And” between values parts separate entries of the source, which are not always exact repeats. Equal values may be shown once.

What was measured:
Assay type in all cases: cell-based
[1] = test system: selected typical species of contaminants; experiment: Substitution of conventional biocides with NBDA in products, LuminUltra test against controls
From the text: A test sample (T): In a known recipe for a product comprising one or more conventional biocide(s), said biocide(s) is replaced with NBDA (or another tert, amine according to the present invention).
A control sample (C): Product comprising one or more conventional biocide(s) produced following an established recipe.
A negative control sample (N): A further negative control may be provided by removing said conventional biocide(s) from the recipe, without addition of NBDA (or other biocides). Provision and test of the N-sample can be optional.
Samples, such as test-, control- and/or negative control samples are provided according to Example 3. To assess the effect of the biocide(s), microbial contamination is measured, such as according to Example 6, or other conventional methods known in the art.
In short, samples are exposed to microbial contamination (microbial stress test) e.g. by opening a lid and closing it for a defined period of time, or other operations, mimicking a conventional user situation. Alternatively, samples can be inoculated with defined quantities of microorganisms, such as one or more indicator microorganism.
The samples can be divided into different aliquots, and incubated for selected periods at one or more relevant temperatures, such as e.g. one or more of 4° C., room temperature (RT, usually 20° C., 22° C., or 25° C.), 30° C., 32° C., 37° C., 40° C., and/or 60° C.), simulating e.g. appropriate storage, processing and usage conditions.
ATP, such as intracellular ATP is measured using a commercially available system, such as provided by LumiUltra®, in particular a method using luminase (Aqua Tools, see details below).
In short, a buffering solution and Luminase enzyme are mixed. After daily ATP standard calibration, an aliquot, such as 1 ml of sample is transferred to an 1 ml extraction tube. After dilution in UltraLute resin, the total ATP (content can be established in the luminescence measuring device. 2) 1 ml sample is dissolved in LumiSolve stabilizing agent. […] For further details, see e.g. Aqua Tools (78300 Poissy, France) Quick reference guide QuenchGone21™ Speciality Test Kit QG21S-50/QG21St-100 2G.

[2] = test system: Salmonella Infantis ISI 170; experiment: Minimal inhibitory concentration (MIC)
Method: (§1) Minimum inhibitory concentrations (MICs) are defined as the lowest concentration of an antimicrobial that will inhibit the visible growth of a microorganism after a standardized incubation. In the present study, MIC assay was performed by pipetting robot. The principle is that an indicator microorganism at a defined cell density is cultured with a range of concentrations of the test compound, one concentration pr, well in a row on the microtiter plate. For bacteria and yeasts the minimal inhibitory concentration was detected as no increase of optical density (OD), for moulds microtiter plates were read visually. Each indicator organism is tested in duplicate and the MIC is calculated as the average of the two determinations. The tested concentrations of the antimicrobial substances were 2-fold dilutions from 5%. All indicator organisms (see Table 2.) were pre-cultivated in a suitable growth medium and diluted in the same medium to give a final concentration in the assay of ˜1×10^3 cfu/ml. The microtiter plates were incubated under specific incubation conditions (see Table III). [table]

[3] = test system: Leuconostoc mesenteroides ISI 504; experiment: Minimal inhibitory concentration (MIC)
Method: as §1

[4] = test system: Candida albicans ISI 1226; experiment: Minimal inhibitory concentration (MIC)
Method: as §1

[5] = test system: Streptococcus termophilus ISI 1563; experiment: Minimal inhibitory concentration (MIC)
Method: as §1

[6] = test system: Aspergillus niger ISI 3; experiment: Minimal inhibitory concentration (MIC)
Method: as §1

[7] = test system: Pseudomonas aeruginosa, ATCC 10145; experiment: PT6 screening, in-can preservation of acrylic paint (ATP, aerobic and anaerobic growth on agar plate)
Method: The microbial activity in relation to in-can preservation of paint was tested using three methods: ATP measurement, Aerobic growth on agar plate and Anaerobic growth on agar plate in low-air conditions. […] Furthermore, no significant dependence on concentration was shown in these specific tests. Specific about the ATP measurements: test and method developed by Luminultra. A sample is taken from the test paint at a given time and the total amount of ATP is measured. Total ATP amount are measured at Day 7 and 30. After every ATP measurement, streaking of test material on agar plates has been performed. Growth test in aerobic and anaerobic environment are running in 1 and 14 days, respectively. Test organism: Pseudomonas aeruginosa, ATCC 10145 [table] The commercial biocide used for the results listed in Table VIII is Vinkocide CMIK R. Acrylic paint is standard EN152 (modified without PT6 biocide). P. aeruginosa are inoculated in 200 μl concentration to paint sample size of 140 ml in a sterile “paint can-shape” container. Shark Solution candidate A and the commercial biocide are added to the standard paint and mixed in a shaker machine. Every matrix is tested in two replications (n=2) with an additional replication without inoculation of bacteria.

SMILES: CCCCN(CCO)CCO [NBDA, N-butyldiethanolamine]
- biocidal protection ([1]; SBR precoat composition for carpets, MIT/BIT substituted with 0.5% NBDA): same performance as the origin
- biocidal effect ([1]; Styrene-Butadiene-Rubber (SBR)-emulsion, MIT and/or BIT replaced, 32° C.): comparable and better than the normal biocide package
- biocidal effect ([1]; algae removing compound, benzalkonium chloride replaced with 1-5%, 32° C.): comparable or even surpassing benzalkonium chloride in function
- biocidal effect ([1]; circulating heat-transfer systems, benzalkonium chloride replaced with 1-5%, 32° C.): comparable to benzalkonium chloride
- biocidal effect ([1]; combination dispersions, emulsions, suspensions, 32° C.): comparable and better than the normal biocide package
- biocidal effect ([1]; disinfection compound for pipes, benzalkonium chloride replaced with 1-5%, 32° C.): comparable to benzalkonium chloride
- preservation effect ([1]; food, preservatives substituted with comparable amounts of NBDA): suitable preservation effect(s) as the beforementioned preservative(s)
- biocidal effect ([1]; hand cleanser, sodiumbenzoate, MIT and BIT replaced, 32° C.): comparable or even better than the normal biocide package
- biocidal effect ([1]; liquid dishwashing compound, MIT/BIT replaced with 0.01-1%, 32° C.): comparable to or even surpassing the conventional biocide
- biocidal effect ([1]; liquid disinfection compound, benzalkonium chloride replaced with 1-5%, 32° C.): comparable or even surpassing benzalkonium chloride in function
- biocidal effect ([1]; moisturizing crème, benzoate and commercial biocides replaced, 32° C.): comparable or even better than the normal biocide package
- biocidal effect ([1]; soap, sodiumbenzoate, MIT and BIT replaced, 32° C.): comparable or even better than the normal biocide package
- biocidal effect ([1]; stabilized suspension, MIT and BIT replaced, 32° C.): comparable and better than the normal biocide package
- biocidal effect ([1]; swimming pool water, chlorine compounds replaced, 32° C.): comparable or even better than chlorine based traditional solutions
- biocidal effect ([1]; toothpaste, benzoate (e.g. 0.5%) replaced with similar concentration): comparable or even better than benzoate
- biocidal effect ([1]; veterinary disinfection compound, benzalkonium chloride and/or glutaraldehyde replaced with 1-5%, 32° C.): comparable or even surpassing both benzalkonium chloride and glutaraldehyde in function
- biocidal effect ([1]; waterborne cooling compound, benzalkonium chloride replaced with 1-5%, 32° C.): comparable or surpassing benzalkonium chloride
- biocidal effect ([1]; watersystems for toilets, washing facilities, benzalkonium chloride replaced with 1-5%, 32° C.): comparable to benzalkonium chloride
- MIC (%) [2]: 1.25%
- MIC data (optical density) ([2]; 0.02% NBDA): 1.662 and 1.413
- MIC data (optical density) ([2]; 0.04% NBDA): 1.501 and 1.629
- MIC data (optical density) ([2]; 0.08% NBDA): 1.640 and 1.623
- MIC data (optical density) ([2]; 0.16% NBDA): 1.566 and 1.546
- MIC data (optical density) ([2]; 0.31% NBDA): 1.389 and 1.282
- MIC data (optical density) ([2]; 0.63% NBDA): 0.905 and 0.965
- MIC data (optical density) ([2]; 1.25% NBDA): 0.046 and 0.040
- MIC data (optical density) ([2]; 2.50% NBDA): 0.047 and 0.044
- MIC data (optical density) ([2]; 5.00% NBDA): 0.044 and 0.043
- MIC (%) [3]: 0.31%
- MIC data (optical density) ([3]; 0.02% NBDA): 1.025 and 0.943
- MIC data (optical density) ([3]; 0.04% NBDA): 1.135 and 1.104
- MIC data (optical density) ([3]; 0.08% NBDA): 1.005 and 1.027
- MIC data (optical density) ([3]; 0.16% NBDA): 1.065 and 0.990
- MIC data (optical density) ([3]; 0.31% NBDA): 0.051 and 0.052
- MIC data (optical density) ([3]; 0.63% NBDA): 0.047 and 0.049
- MIC data (optical density) ([3]; 1.25% NBDA): 0.046 and 0.047
- MIC data (optical density) ([3]; 2.50% NBDA): 0.046
- MIC data (optical density) ([3]; 5.00% NBDA): 0.044 and 0.041
- MIC (%) [4]: 0.63%
- MIC data (optical density) ([4]; 0.02% NBDA): 1.272 and 1.291
- MIC data (optical density) ([4]; 0.04% NBDA): 1.243 and 1.259
- MIC data (optical density) ([4]; 0.08% NBDA): 1.223 and 1.256
- MIC data (optical density) ([4]; 0.16% NBDA): 1.118 and 1.134
- MIC data (optical density) ([4]; 0.31% NBDA): 0.886 and 0.984
- MIC data (optical density) ([4]; 0.63% NBDA): 0.056
- MIC data (optical density) ([4]; 1.25% NBDA): 0.051 and 0.050
- MIC data (optical density) ([4]; 2.50% NBDA): 0.047 and 0.046
- MIC data (optical density) ([4]; 5.00% NBDA): 0.042 and 0.044
- MIC (%) [5]: 0.63%
- MIC data (optical density) ([5]; 0.02% NBDA): 0.57 and 0.515
- MIC data (optical density) ([5]; 0.04% NBDA): 0.445 and 0.473
- MIC data (optical density) ([5]; 0.08% NBDA): 0.431 and 0.462
- MIC data (optical density) ([5]; 0.16% NBDA): 0.444 and 0.438
- MIC data (optical density) ([5]; 0.31% NBDA): 0.115 and 0.108
- MIC data (optical density) ([5]; 0.63% NBDA): 0.046 and 0.043
- MIC data (optical density) ([5]; 1.25% NBDA): 0.044 and 0.045
- MIC data (optical density) ([5]; 2.50% NBDA): 0.049
- MIC data (optical density) ([5]; 5.00% NBDA): 0.041 and 0.042
- MIC (%) [6]: 0.63%
- anti-microbial potential in paint ([7]; 1, 2 and 5% NBDA): reveal anti-microbial potentials
- effectiveness in in-can preservation of paints ([7]; concentrations of 0.5%, 1%, 2%, and 5%): effective against aerobic bacteria
